From paper PMC2994263 (Chemical biology & drug design, 2010)

Columns and labels:
bradykinin B2 receptor = bradykinin B2 receptor cDNA transfected cells; ref [10]; cited from earlier work
[1] = tested on: ERK1/2 activation by AngII; assay: ERK1/2 phosphorylation; type: cell-based, human; conditions: 10 μM peptide; 10 nM AngII, 5 min; western blot; average of three gels
[2] = tested on: Akt/PKB (Ser473) phosphorylation by AngII via endogenous AT1 receptor; assay: Akt/PKB phosphorylation; type: cell-based, human; conditions: 10 nM AngII, 5 min
AT1 receptor [3] = assay: Phosphoinositide; type: cell-based, human
AT1 receptor [4] = assay: Calcium mobilization in AT1-transfected HEK-293 cells; type: cell-based, human; conditions: 10 nM AngII, Fura-2/AM fluorescence
[5] = tested on: NFκB p65 (Ser536) phosphorylation by AngII; assay: NFκB p65 phosphorylation; type: cell-based, human; conditions: 10 nM AngII, 5 min
[6] = tested on: mutant AT1 receptor containing the IC2 of the BKB2R; conditions: HEK-293 cells, ref [10]; cited from earlier work
AT1 receptor [7] = conditions: AT1 cDNA transfected HEK-293 cells; ref [10]; cited from earlier work

In the case of bradykinin, the “Akt phosphorylation (in words)” value (bradykinin B2 receptor) is listed as “decreases it”.
For “GRKKRRQRRRPPQGGVHPMKSRLRRT [AT1 IC2 peptide]”, the “effect on ERK1/2 activation by AngII (in words)” value [1] was “no effect”.
For “GRKKRRQRRRPPQGGVKTMSMGRMRG [control peptide]”, the “effect on AngII induced Akt phosphorylation (in words)” value ([2]; 10 μM peptide) was “no effect”, the “effect on AngII induced PI turnover (in words)” value (AT1 receptor [3]; 10 μM peptide, 30 min before 10 nM AngII) was “unhindered” and the “effect on ERK1/2 activation by AngII (in words)” value [1] was “neither the control peptide nor the IC2 peptide at 10 μM affected the activation of this MAP kinase by AngII”. For the same substance, the “effect on AngII promoted Ca2+ entry (in words)” value (AT1 receptor [4]; 10 μM peptide) was “no effect” and the “effect on AngII dependent NFκB activation / p65 phosphorylation (in words)” value ([5]; 10 μM peptide) was “no inhibitory effect”.
For “Angiotensin II (DRVYIHPF; Angiotensin-2; UniProt P01019 25-32, looked up) [AngII]”, the “pAkt (in words)” value [6] is listed as “decreased pAkt”, the “activation of Akt/PKB by AngII (in words)” value ([2]; no peptide) is listed as “sizable activation of Akt/PKB” and the “Akt phosphorylation (in words)” value (AT1 receptor [7]) is listed as “increases Akt phosphorylation”. For the same substance, the “PI turnover induced by AngII (in words)” value (AT1 receptor [3]; 10 nM AngII, 30 min at 37°C, no peptide) was “induced a marked PI turnover”, the “calcium influx caused by AngII (in words)” value (AT1 receptor [4]; no peptide) was “strong calcium influx” and the “Ser536 phosphorylation of p65 by AngII (in words)” value ([5]; no peptide) was “clearly enhanced”.
